{
  "source": "patent US20230085307A1",
  "about": "“PYRIDAZINONE COMPOUND AND HERBICIDE” (NISSAN CHEMICAL CORPORATION, priority 2019, published 2023)",
  "key": {"late watergrass": {"tested_on": "late watergrass", "experiment": "Test Example 2: herbicidal activity, application during weed generation under submerged conditions (Table 17, symbol A)", "type": "in vivo, late watergrass (Echinochloa oryzicola)", "conditions": "AAH 320 g/ha; application during weed generation, submerged conditions", "outline": "(§1)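 Herbicide emulsion, diluted with water to the chosen amount, is applied onto 4 cm floodwater over alluvial soil where the weeds were co-sown and raised at 25–30° C. Application timing: 1–2 leaves. Assessment: three weeks afterwards.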"}, "Japanese bulrush": {"tested_on": "Japanese bulrush", "experiment": "Test Example 2: herbicidal activity, application during weed generation under submerged conditions (Table 17, symbol B)", "type": "in vivo, Japanese bulrush (Schoenoplectus juncoides)", "conditions": "AAH 320 g/ha; application during weed generation, submerged conditions", "outline": "as §1"}, "oval-leafed pondweed": {"tested_on": "oval-leafed pondweed", "experiment": "Test Example 2: herbicidal activity, application during weed generation under submerged conditions (Table 17, symbol C)", "type": "in vivo, oval-leafed pondweed (Monochoria vaginalis)", "conditions": "AAH 320 g/ha; application during weed generation, submerged conditions", "outline": "as §1"}, "barnyard grass [1]": {"tested_on": "barnyard grass", "experiment": "Test Example 3: herbicidal effect by foliage application, Wagner pot (Table 18, symbol H)", "type": "in vivo, barnyard grass (Echinochloa crus-galli)", "conditions": "320 g/ha", "outline": "(§2)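 Plants were sown in alluvial soil held under 0.1–0.5 cm standing water and grown 14 days in a greenhouse at 25–30 °C. An emulsifiable formulation, water-diluted to the set dose, was then sprayed onto the foliage, and effects were scored three weeks later using previously defined criteria.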"}, "Chinese sprangletop": {"tested_on": "Chinese sprangletop", "experiment": "Test Example 3: herbicidal effect by foliage application, Wagner pot (Table 18, symbol D)", "type": "in vivo, chinese sprangletop (Leptochloa chinensis)", "conditions": "320 g/ha", "outline": "as §2"}, "rice flat sedge": {"tested_on": "rice flat sedge", "experiment": "Test Example 3: herbicidal effect by foliage application, Wagner pot (Table 18, symbol E)", "type": "in vivo, rice flat sedge (Cyperus iria)", "conditions": "320 g/ha", "outline": "as §2"}, "southern crabgrass [2]": {"tested_on": "southern crabgrass", "experiment": "Test Example 4: herbicidal effect by soil treatment (Table 19, symbol F)", "type": "in vivo, southern crabgrass (Digitaria ciliaris)", "conditions": "amount of applied herbicide 320 g/ha", "outline": "(§3)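 Pre-emergence style soil spray: seeds under ~1.5 cm sterilized diluvial soil received a uniform coat of emulsion diluted to the predetermined herbicide amount. Greenhouse 25–30° C; readout at week three on previously defined criteria.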"}, "green foxtail [3]": {"tested_on": "green foxtail", "experiment": "Test Example 4: herbicidal effect by soil treatment (Table 19, symbol G)", "type": "in vivo, green foxtail (Setaria viridis)", "conditions": "amount of applied herbicide 320 g/ha", "outline": "as §3"}, "barnyard grass [4]": {"tested_on": "barnyard grass", "experiment": "Test Example 4: herbicidal effect by soil treatment (Table 19, symbol H)", "type": "in vivo, barnyard grass (Echinochloa crus-galli)", "conditions": "amount of applied herbicide 320 g/ha", "outline": "as §3"}, "wild oat [5]": {"tested_on": "wild oat", "experiment": "Test Example 4: herbicidal effect by soil treatment (Table 19, symbol I)", "type": "in vivo, wild oat (Avena fatua)", "conditions": "amount of applied herbicide 320 g/ha", "outline": "as §3"}, "blackgrass [6]": {"tested_on": "blackgrass", "experiment": "Test Example 4: herbicidal effect by soil treatment (Table 19, symbol J)", "type": "in vivo, blackgrass (Alopecurus myosuroides)", "conditions": "amount of applied herbicide 320 g/ha", "outline": "as §3"}, "Italian ryegrass [7]": {"tested_on": "Italian ryegrass", "experiment": "Test Example 4: herbicidal effect by soil treatment (Table 19, symbol K)", "type": "in vivo, Italian ryegrass (Lolium multiflorum)", "conditions": "amount of applied herbicide 320 g/ha", "outline": "as §3"}, "velvetleaf [8]": {"tested_on": "velvetleaf", "experiment": "Test Example 4: herbicidal effect by soil treatment (Table 19, symbol M)", "type": "in vivo, velvetleaf (Abutilon theophrasti)", "conditions": "amount of applied herbicide 320 g/ha", "outline": "as §3"}, "redroot pigweed [9]": {"tested_on": "redroot pigweed", "experiment": "Test Example 4: herbicidal effect by soil treatment (Table 19, symbol N)", "type": "in vivo, redroot pigweed (Amaranthus retroflexus)", "conditions": "amount of applied herbicide 320 g/ha", "outline": "as §3"}, "chickweed [10]": {"tested_on": "chickweed", "experiment": "Test Example 4: herbicidal effect by soil treatment (Table 19, symbol P)", "type": "in vivo, common chickweed (Stellaria media)", "conditions": "amount of applied herbicide 320 g/ha", "outline": "as §3"}, "false cleavers [11]": {"tested_on": "false cleavers", "experiment": "Test Example 4: herbicidal effect by soil treatment (Table 19, symbol Q)", "type": "in vivo, false cleavers (Galium spurium)", "conditions": "amount of applied herbicide 320 g/ha", "outline": "as §3"}, "persian speedwell [12]": {"tested_on": "persian speedwell", "experiment": "Test Example 4: herbicidal effect by soil treatment (Table 19, symbol R)", "type": "in vivo, Persian speedwell (Veronica persica)", "conditions": "amount of applied herbicide 320 g/ha", "outline": "as §3"}, "southern crabgrass [13]": {"tested_on": "southern crabgrass", "experiment": "Test Example 5: herbicidal effect by foliage application, plastic box (Table 20, symbol F)", "type": "in vivo, southern crabgrass (Digitaria ciliaris)", "conditions": "foliage application, 320 g/ha, three weeks after application", "outline": "(§4)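 Plants were sown into sterilized diluvial soil under about 1.5 cm cover and kept in a greenhouse at 25° C. to 30° C. Fourteen days on, foliage received an even spray of the diluted emulsion. Herbicidal or crop effect was judged three weeks afterwards.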"}, "green foxtail [14]": {"tested_on": "green foxtail", "experiment": "Test Example 5: herbicidal effect by foliage application, plastic box (Table 20, symbol G)", "type": "in vivo, green foxtail (Setaria viridis)", "conditions": "foliage application, 320 g/ha, three weeks after application", "outline": "as §4"}, "barnyard grass [15]": {"tested_on": "barnyard grass", "experiment": "Test Example 5: herbicidal effect by foliage application, plastic box (Table 20, symbol H)", "type": "in vivo, barnyard grass (Echinochloa crus-galli)", "conditions": "foliage application, 320 g/ha, three weeks after application", "outline": "as §4"}, "wild oat [16]": {"tested_on": "wild oat", "experiment": "Test Example 5: herbicidal effect by foliage application, plastic box (Table 20, symbol I)", "type": "in vivo, wild oat (Avena fatua)", "conditions": "foliage application, 320 g/ha, three weeks after application", "outline": "as §4"}, "blackgrass [17]": {"tested_on": "blackgrass", "experiment": "Test Example 5: herbicidal effect by foliage application, plastic box (Table 20, symbol J)", "type": "in vivo, blackgrass (Alopecurus myosuroides)", "conditions": "foliage application, 320 g/ha, three weeks after application", "outline": "as §4"}, "Italian ryegrass [18]": {"tested_on": "Italian ryegrass", "experiment": "Test Example 5: herbicidal effect by foliage application, plastic box (Table 20, symbol K)", "type": "in vivo, Italian ryegrass (Lolium multiflorum)", "conditions": "foliage application, 320 g/ha, three weeks after application", "outline": "as §4"}, "windgrass": {"tested_on": "windgrass", "experiment": "Test Example 5: herbicidal effect by foliage application, plastic box (Table 20, symbol L)", "type": "in vivo, windgrass (Apera spica-venti)", "conditions": "foliage application, 320 g/ha, three weeks after application", "outline": "as §4"}, "velvetleaf [19]": {"tested_on": "velvetleaf", "experiment": "Test Example 5: herbicidal effect by foliage application, plastic box (Table 20, symbol M)", "type": "in vivo, velvetleaf (Abutilon theophrasti)", "conditions": "foliage application, 320 g/ha, three weeks after application", "outline": "as §4"}, "redroot pigweed [20]": {"tested_on": "redroot pigweed", "experiment": "Test Example 5: herbicidal effect by foliage application, plastic box (Table 20, symbol N)", "type": "in vivo, redroot pigweed (Amaranthus retroflexus)", "conditions": "foliage application, 320 g/ha, three weeks after application", "outline": "as §4"}, "lambsquarters": {"tested_on": "lambsquarters", "experiment": "Test Example 5: herbicidal effect by foliage application, plastic box (Table 20, symbol O)", "type": "in vivo, lambsquarters (Chenopodium album)", "conditions": "foliage application, 320 g/ha, three weeks after application", "outline": "as §4"}, "chickweed [21]": {"tested_on": "chickweed", "experiment": "Test Example 5: herbicidal effect by foliage application, plastic box (Table 20, symbol P)", "type": "in vivo, common chickweed (Stellaria media)", "conditions": "foliage application, 320 g/ha, three weeks after application", "outline": "as §4"}, "false cleavers [22]": {"tested_on": "false cleavers", "experiment": "Test Example 5: herbicidal effect by foliage application, plastic box (Table 20, symbol Q)", "type": "in vivo, false cleavers (Galium spurium)", "conditions": "foliage application, 320 g/ha, three weeks after application", "outline": "as §4"}, "persian speedwell [23]": {"tested_on": "persian speedwell", "experiment": "Test Example 5: herbicidal effect by foliage application, plastic box (Table 20, symbol R)", "type": "in vivo, Persian speedwell (Veronica persica)", "conditions": "foliage application, 320 g/ha, three weeks after application", "outline": "as §4"}},
  "data": [
    {"compound": "COc1ccc(-c2sc3ccccc3c2-c2c(O)c(C)nn(C)c2=O)cc1C", "note": "[1-068]", "values": [
      {"measurement": "herbicidal effect rating, A: late watergrass", "setting": "late watergrass", "value": "0 (Herbicidal rate of 5% or less (almost no effect))"},
      {"measurement": "herbicidal effect rating, B: Japanese bulrush", "setting": "Japanese bulrush", "value": "1 (Herbicidal rate of 5% or more and less than 20%)"},
      {"measurement": "herbicidal effect rating, C: oval-leafed pondweed", "setting": "oval-leafed pondweed", "value": "3 (Herbicidal rate of 40% or more and less than 70%)"},
      {"measurement": "herbicidal effect on H (barnyard grass), rating 0-5", "setting": "barnyard grass [1]", "value": "3 (Herbicidal rate of 40% or more and less than 70%)"},
      {"measurement": "herbicidal effect on D (Chinese sprangletop), rating 0-5", "setting": "Chinese sprangletop", "value": "1 (Herbicidal rate of 5% or more and less than 20%)"},
      {"measurement": "herbicidal effect on E (rice flat sedge), rating 0-5", "setting": "rice flat sedge", "value": "5 (Herbicidal rate of 90% or more (almost completely withered))"},
      {"measurement": "herbicidal effect rating, F: southern crabgrass", "setting": "southern crabgrass [2]", "value": "0 (Herbicidal rate of 5% or less (almost no effect))"},
      {"measurement": "herbicidal effect rating, G: green foxtail", "setting": "green foxtail [3]", "value": "4 (Herbicidal rate of 70% or more and less than 90%)"},
      {"measurement": "herbicidal effect rating, H: barnyard grass", "setting": "barnyard grass [4]", "value": "4 (Herbicidal rate of 70% or more and less than 90%)"},
      {"measurement": "herbicidal effect rating, I: wild oat", "setting": "wild oat [5]", "value": "0 (Herbicidal rate of 5% or less (almost no effect))"},
      {"measurement": "herbicidal effect rating, J: blackgrass", "setting": "blackgrass [6]", "value": "0 (Herbicidal rate of 5% or less (almost no effect))"},
      {"measurement": "herbicidal effect rating, K: Italian ryegrass", "setting": "Italian ryegrass [7]", "value": "2 (Herbicidal rate of 20% or more and less than 40%)"},
      {"measurement": "herbicidal effect rating, M: velvetleaf", "setting": "velvetleaf [8]", "value": "0 (Herbicidal rate of 5% or less (almost no effect))"},
      {"measurement": "herbicidal effect rating, N: redroot pigweed", "setting": "redroot pigweed [9]", "value": "0 (Herbicidal rate of 5% or less (almost no effect))"},
      {"measurement": "herbicidal effect rating, P: chickweed", "setting": "chickweed [10]", "value": "2 (Herbicidal rate of 20% or more and less than 40%)"},
      {"measurement": "herbicidal effect rating, Q: false cleavers", "setting": "false cleavers [11]", "value": "0 (Herbicidal rate of 5% or less (almost no effect))"},
      {"measurement": "herbicidal effect rating, R: persian speedwell", "setting": "persian speedwell [12]", "value": "4 (Herbicidal rate of 70% or more and less than 90%)"},
      {"measurement": "herbicidal effect grade, F: southern crabgrass", "setting": "southern crabgrass [13]", "value": "3 (Herbicidal rate of 40% or more and less than 70%)"},
      {"measurement": "herbicidal effect grade, G: green foxtail", "setting": "green foxtail [14]", "value": "3 (Herbicidal rate of 40% or more and less than 70%)"},
      {"measurement": "herbicidal effect grade, H: barnyard grass", "setting": "barnyard grass [15]", "value": "3 (Herbicidal rate of 40% or more and less than 70%)"},
      {"measurement": "herbicidal effect grade, I: wild oat", "setting": "wild oat [16]", "value": "1 (Herbicidal rate of 5% or more and less than 20%)"},
      {"measurement": "herbicidal effect grade, J: blackgrass", "setting": "blackgrass [17]", "value": "0 (Herbicidal rate of 5% or less (almost no effect))"},
      {"measurement": "herbicidal effect grade, K: Italian ryegrass", "setting": "Italian ryegrass [18]", "value": "3 (Herbicidal rate of 40% or more and less than 70%)"},
      {"measurement": "herbicidal effect grade, L: windgrass", "setting": "windgrass", "value": "0 (Herbicidal rate of 5% or less (almost no effect))"},
      {"measurement": "herbicidal effect grade, M: velvetleaf", "setting": "velvetleaf [19]", "value": "3 (Herbicidal rate of 40% or more and less than 70%)"},
      {"measurement": "herbicidal effect grade, N: redroot pigweed", "setting": "redroot pigweed [20]", "value": "0 (Herbicidal rate of 5% or less (almost no effect))"},
      {"measurement": "herbicidal effect grade, O: lambsquarters", "setting": "lambsquarters", "value": "3 (Herbicidal rate of 40% or more and less than 70%)"},
      {"measurement": "herbicidal effect grade, P: chickweed", "setting": "chickweed [21]", "value": "5 (Herbicidal rate of 90% or more (almost completely withered))"},
      {"measurement": "herbicidal effect grade, Q: false cleavers", "setting": "false cleavers [22]", "value": "0 (Herbicidal rate of 5% or less (almost no effect))"},
      {"measurement": "herbicidal effect grade, R: persian speedwell", "setting": "persian speedwell [23]", "value": "5 (Herbicidal rate of 90% or more (almost completely withered))"}
    ]}
  ]
}
